{
  "source": "patent US20150125546A1",
  "about": "“COMBINATION THERAPY FOR TREATING PULMONARY HYPERTENSION” (Gilead Sciences, Inc., priority 2013, published 2015)",
  "key": {"[1]": {"tested_on": "cGMP synthesis in isolated intrapulmonary arteries", "test": "cGMP content in isolated rat intrapulmonary arteries", "details": "for ET-1-stimulated cGMP synthesis in the presence of bosentan / ET-1 plus riociguat-stimulated cGMP synthesis in the presence of bosentan: 100 nM bosentan; for ET-1-stimulated cGMP synthesis in the presence of bosentan: 8 nM ET-1; for ET-1 plus riociguat-stimulated cGMP synthesis in the presence of bosentan: 8 nM ET-1 plus 30 nM riociguat"}, "[2]": {"tested_on": "endothelin-1 (ET-1)-constricted intrapulmonary arteries isolated from rats", "test": "relaxation of ET-1-induced contraction of isolated rat intrapulmonary arterial rings", "details": "for relaxation of ET-1-constricted intrapulmonary arteries: 8 nM ET-1; for effect on potency of the other drug to relax ET-1 constricted rat pulmonary arteries: qualitative (FIG. 6, FIG. 7)"}, "ETA receptor": {"molecular_target": "T1, ETA receptor (Homo sapiens, UniProt P25101)", "T1 sequence (P25101 21-427)": "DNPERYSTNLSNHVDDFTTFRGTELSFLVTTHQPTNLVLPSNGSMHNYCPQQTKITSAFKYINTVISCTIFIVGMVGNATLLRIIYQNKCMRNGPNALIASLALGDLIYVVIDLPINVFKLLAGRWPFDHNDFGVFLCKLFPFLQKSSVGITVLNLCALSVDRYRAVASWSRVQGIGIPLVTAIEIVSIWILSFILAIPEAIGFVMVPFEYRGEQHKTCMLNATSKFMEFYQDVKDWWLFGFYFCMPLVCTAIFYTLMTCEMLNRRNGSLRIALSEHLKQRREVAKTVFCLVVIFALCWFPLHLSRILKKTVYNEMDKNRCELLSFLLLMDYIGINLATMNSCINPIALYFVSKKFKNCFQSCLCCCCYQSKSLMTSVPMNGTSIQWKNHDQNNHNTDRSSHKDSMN", "details": "background statement; read-out: affinity for the ETA receptor; cited from earlier work"}, "[3]": {"tested_on": "phosphorylation of MLC2 by MLCK", "test": "ET-1-stimulated phosphorylation of MLC2 by MLCK in rat pulmonary arteries", "details": "qualitative (FIG. 10)", "source_text": "Further, ambrisentan and riociguat attenuated ET-1 stimulated phosphorylation of MLC2 by MLCK in rat pulmonary arteries (FIG. 10)."}, "[4]": {"details": "30 nM alone, another run (FIG. 3, FIG. 4)"}, "[5]": {"details": "30 nM alone, first run (FIG. 2), mean±SEM"}},
  "note": "Read-outs that look alike come from different tables or passages of the source. Ends that are not written are not given here.",
  "data": [
    {"molecule": "COC(=O)[C@@H](N)CCCN=C(N)N[N+](=O)[O-].Cl", "note": "[L-NAME]", "values": [
      {"measurement": "blocking of ET-1 and its combination with riociguat to stimulate cGMP synthesis", "setting": "[1]", "result": "significantly blocked"}
    ]},
    {"molecule": "COC(c1ccccc1)(c1ccccc1)[C@H](Oc1nc(C)cc(C)n1)C(=O)O", "note": "[ambrisentan, (2S)-2-[(4,6-dimethylpyrimidin-2-yl)oxy]-3-methoxy-3,3-diphenylpropanoic acid]", "values": [
      {"measurement": "relaxation of ET-1-constricted intrapulmonary arteries", "setting": "[2]; 10 nM alone, another run (FIG. 3), mean±SEM", "result": "28.5±6.4", "unit": "%"},
      {"measurement": "relaxation of ET-1-constricted intrapulmonary arteries", "setting": "[2]; 10 nM alone, first run (FIG. 2), mean±SEM", "result": "29±6", "unit": "%"},
      {"measurement": "effect on potency of the other drug to relax ET-1 constricted rat pulmonary arteries", "setting": "[2]", "result": "increased the potency of riociguat"},
      {"measurement": "Ki", "setting": "ETA receptor", "result": "~0.012", "unit": "nM"},
      {"measurement": "effect on ET-1 stimulated phosphorylation of MLC2 by MLCK", "setting": "[3]", "result": "attenuated"},
      {"measurement": "blocking of ET-1 and its combination with riociguat to stimulate cGMP synthesis", "setting": "[1]; qualitative", "result": "but not ambrisentan, significantly blocked"}
    ]},
    {"molecule": "COc1ccccc1Oc1c(NS(=O)(=O)c2ccc(C(C)(C)C)cc2)nc(-c2ncccn2)nc1OCCO", "note": "[bosentan]", "values": [
      {"measurement": "relaxation of ET-1-constricted intrapulmonary arteries", "setting": "[2]; 100 nM alone, another run (FIG. 4)", "result": 19.8, "unit": "%"},
      {"measurement": "relaxation of ET-1-constricted intrapulmonary arteries", "setting": "[2]; 100 nM alone, first run (FIG. 2), mean±SEM", "result": "23±3", "unit": "%"},
      {"measurement": "ET-1-stimulated cGMP synthesis in the presence of bosentan", "setting": "[1]; another run (FIG. 9)", "result": 36, "unit": "pmol/g tissue"},
      {"measurement": "ET-1-stimulated cGMP synthesis in the presence of bosentan", "setting": "[1]; first run", "result": "21±3", "unit": "pmol/g tissue"},
      {"measurement": "ET-1 plus riociguat-stimulated cGMP synthesis in the presence of bosentan", "setting": "[1]; another run (FIG. 9)", "result": 97, "unit": "pmol/g tissue"},
      {"measurement": "ET-1 plus riociguat-stimulated cGMP synthesis in the presence of bosentan", "setting": "[1]; first run", "result": "37±3", "unit": "pmol/g tissue"},
      {"measurement": "blocking of ET-1 and its combination with riociguat to stimulate cGMP synthesis", "setting": "[1]; qualitative", "result": "significantly blocked"}
    ]},
    {"molecule": "CCCNS(=O)(=O)Nc1ncnc(OCCOc2ncc(Br)cn2)c1-c1ccc(Br)cc1", "note": "[macitentan]", "values": [
      {"measurement": "relaxation of ET-1-constricted intrapulmonary arteries", "setting": "[2]; [4]", "result": 30.1, "unit": "%"},
      {"measurement": "relaxation of ET-1-constricted intrapulmonary arteries", "setting": "[2]; [5]", "result": "30±6", "unit": "%"}
    ]},
    {"molecule": "COC(=O)N(C)c1c(N)nc(-c2nn(Cc3ccccc3F)c3ncccc23)nc1N", "note": "[riociguat, methyl (4,6-diamino-2-(1-(2-fluorobenzyl)-1H-pyrazolo[3,4-b]pyridin-3-yl)pyrimidin-5-yl)(methyl)carbamate]", "values": [
      {"measurement": "relaxation of ET-1-constricted intrapulmonary arteries", "setting": "[2]; [4]", "result": "23.2±6.5", "unit": "%"},
      {"measurement": "relaxation of ET-1-constricted intrapulmonary arteries", "setting": "[2]; [5]", "result": "23±3", "unit": "%"},
      {"measurement": "effect on potency of the other drug to relax ET-1 constricted rat pulmonary arteries", "setting": "[2]", "result": "increased the potency of ambrisentan"},
      {"measurement": "effect on ET-1 stimulated phosphorylation of MLC2 by MLCK", "setting": "[3]", "result": "attenuated"},
      {"measurement": "content of cGMP", "setting": "[1]; 10 nM ET-1 and 30 nM riociguat in combination", "result": "96±7", "unit": "pmol/g tissue"},
      {"measurement": "content of cGMP", "setting": "[1]; 30 nM riociguat alone", "result": "34±5", "unit": "pmol/g tissue"},
      {"measurement": "effect on ET-1-stimulated cGMP production", "setting": "[1]; qualitative (FIG. 8)", "result": "potentiated ET-1-stimulated cGMP production"}
    ]},
    {"molecule": "Endothelin-1 (CSCSSLMDKECVYFCHLDIIW; ends and bridges not checked; cysteine pairing not given here; UniProt P05305 53-73, looked up) [ET-1]", "values": [
      {"measurement": "content of cGMP", "setting": "[1]; 10 nM ET-1 alone", "result": "37±4", "unit": "pmol/g tissue"}
    ]}
  ]
}
